Patent EP4745118A1, “HYDROXAMIC ACID COMPOUND OR PHARMACEUTICALLY ACCEPTABLE SALT THEREOF, AND USE THEREOF AND PREPARATION METHOD THEREFOR” (priority 2023, dated 2025)

Legend:
[1] = tested on: Escherichia coli ATCC BAA2469 (CRE, NDM-1-producing); assay: In vivo antibacterial activity, intraperitoneal infection in mice (survival over 7 days); conditions: for Animal survival rate / Number of surviving animals: mice, one intravenous administration 1 hour post-infection, 7 days; for Number of surviving animals: 5 animals per group
Protocol: Mice were randomly grouped based on body weight, with 5 mice in each group, regardless of gender. The infectious bacteria was Escherichia coli ATCC BAA2469 (CRE, NDM-1-producing). The test bacterial solution was diluted with 5% high-activity dry yeast. Mice received intraperitoneal injection of 0.5 mL of 100% minimum lethal dose (100% MLD) bacterial solution. One intravenous administration was given at 1 hour post-infection at a dose volume of 10 mL/kg. Animal survival numbers were observed over 7 days, and survival rates were calculated.

Citrobacter freundii = assay: In vitro antibacterial activity, agar dilution method (MIC); assay type: cell-based; conditions: Citrobacter freundii ATCC 43864; agar dilution, 35°C, 18 hours
Protocol: (§1) According to the relevant operating procedures of the Clinical Laboratory Standards Institute (CLSI) in the United States, an antimicrobial susceptibility testing was conducted using the agar dilution method. […]. The agar was allowed to solidify and set aside for later use.
(§2) The test bacteria were propagated in broth and adjusted to a turbidity of 0.5 McFarland (approximately 1-2 × 10^8 CFU/mL) using a turbidimeter before inoculation. The 0.5 McFarland bacterial solution was then diluted 10-fold in broth (approximately 1-2 × 10^7 CFU/mL). A multipoint inoculator was used to inoculate the above bacterial solution onto a series of plates containing different concentrations of drugs (with an inoculation amount of approximately 10^4 CFU per inoculation site). After incubation at a constant temperature of 35°C for 18 hours, results were observed. The minimum concentration of drugs contained in sterile growth plates was determined as the Minimal Inhibitory Concentration (MIC).

Klebsiella pneumoniae = assay: as above; assay type: cell-based; conditions: agar dilution, 35°C, 18 hours
Protocol: as §1, §2

Proteus vulgaris = assay: as above; assay type: cell-based; conditions: Proteus vulgaris ATCC 29905; agar dilution, 35°C, 18 hours
Protocol: as §1, §2

Pseudomonas aeruginosa = assay: as above; assay type: cell-based; conditions: Pseudomonas aeruginosa PAO1; agar dilution, 35°C, 18 hours
Protocol: as §1, §2

Serratia marcescens = assay: as above; assay type: cell-based; conditions: Serratia marcescens ATCC 21074; agar dilution, 35°C, 18 hours
Protocol: as §1, §2

Proteus mirabilis = assay: as above; assay type: cell-based; conditions: Proteus mirabilis ATCC 49565; agar dilution, 35°C, 18 hours
Protocol: as §1, §2

Escherichia coli = assay: as above; assay type: cell-based; conditions: agar dilution, 35°C, 18 hours
Protocol: as §1, §2

Enterobacter aerogenes = assay: as above; assay type: cell-based; conditions: Enterobacter aerogenes ATCC 13048; agar dilution, 35°C, 18 hours
Protocol: as §1, §2

Pantoea agglomerans = assay: as above; assay type: cell-based; conditions: Pantoea agglomerans ATCC 27993; agar dilution, 35°C, 18 hours
Protocol: as §1, §2

Shigella flexneri = assay: as above; assay type: cell-based; conditions: Shigella flexneri ATCC 12022, 35°C, 18 hours
Protocol: According to the relevant operating procedures of the Clinical Laboratory Standards Institute (CLSI) in the United States, an antimicrobial susceptibility testing was conducted using the agar dilution method. A 1920 µg/mL stock solution was serially diluted twofold with sterile water to obtain dilutions of 960, 480, 240, 120, 60, 30, 15, 7.5, 3.75, 1.88, 0.94, 0.47 µg/mL, and 1 mL of the dilution was taken respectively from the dilutions with different concentrations and added to a Petri dish, to which 14 mL of melted MH agar medium was added and mixed thoroughly, and the final concentration of the drug in the petri dish is 128, 64, 32, 16, 8, 4, 2, 1, 0.5, 0.25, 0.12, 0.06, and 0.03 µ g/mL, respectively. The agar was allowed to solidify and set aside for later use.
as §2

ICR strain mice = assay: Acute toxicity in mice, single tail vein injection; assay type: in vivo; conditions: one week
Protocol: Healthy ICR strain mice weighing 20-21 g were taken for the experiment, randomly divided into groups of 3 mice per group, regardless of gender. Each compound was administered via a single tail vein injection at a volume of 20 mL/kg. Animal responses were observed immediately postadministration and monitored for one week. The number of animal deaths was recorded and mortality rates calculated.

Enterobacter cloacae = assay: In vitro antibacterial activity, agar dilution method (MIC); assay type: cell-based; conditions: Enterobacter cloacae CDC1000654 (NDM-1-producing); agar dilution, 35°C, 18 hours
Protocol: According to the relevant operating procedures of the Clinical Laboratory Standards Institute (CLSI) in the United States, an antimicrobial susceptibility testing was conducted using the agar dilution method. […] The agar was allowed to solidify and set aside for later use.
as §2

In the case of `COCC1CC1C#CC#Cc1ccc(C(=O)NC(C(=O)NO)C(C)(C)N)cc1` (mixture of isomers) [Ia/Ib racemate], the “effective dose of in vivo antibacterial activity” value ([1]; mice with intraperitoneal infection by Escherichia coli ATCC BAA2469, intravenous) is reported as “below 1.5 mg/kg”, the Animal survival rate ([1]; dose 0.35 mg/kg) is reported as 0% and the “Number of surviving animals” value ([1]; dose 0.35 mg/kg) is reported as 0 individuals. For the same compound, the Animal survival rate ([1]; dose 0.7 mg/kg) was 0%, the “Number of surviving animals” value ([1]; dose 0.7 mg/kg) was 0 individuals and the Animal survival rate ([1]; dose 1.4 mg/kg) was 40%. For the same compound, the “Number of surviving animals” value ([1]; dose 1.4 mg/kg) was 2 individuals, the MIC (Citrobacter freundii) was 0.25 µg/mL and the MIC (Klebsiella pneumoniae; Klebsiella pneumoniae 09-20 (mcr-1)) was 0.5 µg/mL. For the same compound, the MIC (Klebsiella pneumoniae; Klebsiella pneumoniae 17-R27 (CRE)) was 1 µg/mL, the MIC (Klebsiella pneumoniae; Klebsiella pneumoniae 18-8 (ESBLs-producing)) was 0.5 µg/mL and the MIC (Klebsiella pneumoniae; Klebsiella pneumoniae ATCC 700603 (ESBLs-producing)) was 2 µg/mL. For the same compound, the MIC (Klebsiella pneumoniae; Klebsiella pneumoniae ATCC BAA-2146 (CRE, NDM-1-producing)) was 2 µg/mL, the MIC (Proteus vulgaris) was 0.25 µg/mL and the MIC (Pseudomonas aeruginosa) was 1 µg/mL. The MIC (Serratia marcescens) was 0.25 µg/mL, the MIC (Proteus mirabilis) was 1 µg/mL and the MIC (Escherichia coli; Escherichia coli 13-43 (mcr-1)) was 0.12 µg/mL. The MIC (Escherichia coli; Escherichia coli 17-R28 (CRE, NDM-1-producing)) was 0.12 µg/mL, the MIC (Escherichia coli; Escherichia coli ATCC 2469 (CRE, NDM-1-producing)) was 0.5 µg/mL and the MIC (Escherichia coli; Escherichia coli ATCC 35218 (ESBLs-producing)) was 0.25 µg/mL. The MIC (Enterobacter aerogenes) was 1 µg/mL, the MIC (Pantoea agglomerans) was 1 µg/mL and the MIC (Shigella flexneri) was 0.12 µg/mL. It also gave a Mortality rate (ICR strain mice; dose 100 mg/kg) of 0%, a Number of deaths (ICR strain mice; dose 100 mg/kg) of 0 individuals and a Mortality rate (ICR strain mice; dose 150 mg/kg) of 100%. The Number of deaths (ICR strain mice; dose 150 mg/kg) was 3 individuals and the MIC (Enterobacter cloacae) was 2 µg/mL.
